In US12678412B2, “Substituted tolans for the modulation of microbial colonization” (BioMendics, LLC, priority 2017, dated 2026):

How the values were obtained:
Type in all cases: cell-based
S. typhimurium TA97a = experiment: Dose range finding colony forming assay, strain TA97a with metabolic activation
Procedure: (§1) A series of dose range finding assays were performed with five bacterial strains, S. typhimurium TA97a, TA98, TA100, TA1535, and E. coli WP2 uvrA pKM101, with and without metabolic activation at three plates per dose. The following doses, along with positive and negative controls, were tested: 5000, 2500, 1250, 500, 250, 125, 50, 20, 10, 5, 2, 1, and 0.2 μg/plate. The plates were evaluated for toxicity (a decrease in plate counts with increasing dose and/or a visible thinning of the background lawn) and for precipitation of the test article. Metabolic activation was included in some samples by adding phenobarbital/benzoflavone-induced rat liver S9 fractions with cofactors (S9 mix). Prior to use, freshly thawed aliquots of rat liver S9 were mixed with a sterile cofactor mix. The S9 mix contains a 10% liver S9 concentration and was refrigerated or stored on ice until used. When testing with metabolic activation, the S9 mix was used in the assay tube in place of phosphate buffer.
(§2) Dosing formulations were prepared to deliver all doses in a constant volume of 0.1 mL. The highest dose was prepared from test article weighed to the nearest 0.1 mg and the remaining formulations were prepared as serial dilutions from the high dose stock formulation. Using a permanent marking pen or computer printed labels, assay plates were labeled with the project and study numbers and the date. Assay plates and tubes were labeled with a unique identifier, which was used to match the assay tubes with the properly identified minimal glucose agar plate.
(§3) The pre-incubation method was used to perform the assay. The assay mix consisted of 0.1 mL of the test article formulation or control article, 0.5 mL S9 mix or phosphate buffer, and 0.1 mL of bacterial culture. Assay tubes were incubated at 37±1° C. with gentle agitation for 20±1 minutes, then 2.0-2.5 mL top agar was added to the assay mix and the top agar/assay mix poured onto appropriately labeled minimal glucose agar plates. Once the top agar hardened, the plates were inverted and incubated at 37±1° C. for 48±2 hours. Plates were counted with the Sorcerer (v. 2.2)/Ames Study Manager (v. 1.2.4) system from Perceptive Instruments (Suffolk, UK). With this system, plate counts are automatically transferred from the plate imager (Sorcerer) to a Study Manager spreadsheet, and the data are stored in a secure manner on an Oracle database. Some plates were hand counted, e.g., if sample precipitate interferes with automatic counting or toxicity results in the formation of microcolonies, in which case, counts for these plates were entered into the spreadsheet manually. Plates were scored also with the extent of colonization by a post fix code.

S. typhimurium TA98 = experiment: Dose range finding colony forming assay, strain TA98 with metabolic activation
Procedure: as §1, §2, §3

[1] = tested on: Methicillin Resistant Staphylococcus aureus (MRSA, USA 400); experiment: Colony forming assay, 24 h plate assay, MRSA USA 400
Procedure: Proliferating cultures of Methicillin Resistant Staphylococcus aureus (MRSA, USA 400) were used in a colony forming assay. Frozen stock cultures of MRSA USA 400 were thawed and grown overnight in tryptic soy broth (TSB) with shaking at 37° C. The overnight culture (0.5-1.0 mL) was added to 100 mL TSB and grown at 37° C. with shaking and monitored for an optical density of 0.55-0.60 in order to obtain a final inoculum suspension of approximately 10^8 CFU/mL.
BM3103 was suspended into a 70% v/v alcohol gel formulation to acquire the desired % w/v tested within the example. Each concentration was vortexed thoroughly until dissolved. Initial tested concentrations of BM3103 were 1, 0.5, and 0.1% w/v. These concentrations and the alcohol gel vehicle were mixed with equal parts of the 10^8 CFU/mL inoculum to obtain a final concentration of 0.5, 0.25, and 0.05% (22 mM, 11 mM, and 2 mM) BM3103. Tobramycin (600 μg/mL) served as the positive control. Vehicle and BM3103 formulations contained matching final concentration of 35% v/v alcohol.
BM3103 was dissolved into Transcutol (diethylene glycol monoethyl ether) at 2.5% w/v and vortexed until dissolved. This concentration was then serial diluted to achieve the remaining concentrations tested. Before plating, 100 μL of the final inoculum (10^8 CFU/mL) was mixed with 20 μL TSB broth and 80 μL of BM3103 doses or vehicle. Tobramycin, 600 μg/mL, served as the positive control. The final plating concentrations for BM3103 were 1, 0.5, 0.25, and 0.1% w/v (44 mM, 22 mM, 11 mM, 4 mM) BM3103. Vehicle and BM3103 formulations contained matching final concentration of 40% v/v Transcutol.
The above listed formulations combined with the MRSA inoculum were plated onto TSB agar plates. The plates were grown at 37° C. for 24 h, imaged, and the bacteria colonies were counted. The experiment was done in triplicate at each concentration level described above. Colony counts for each treatment were tabulated and the Log of the colony forming units/mL (Log CFU/mL) were determined. The mean and the standard error of the mean were calculated for each treatment.

wild type E. Coli = experiment: Control of microbial growth, wild type E. coli

In the case of `COc1ccc(C#Cc2ccc(O)cc2)cc1` [BM3103, 4-hydroxy-4′-methoxytolan], the Colony forming units/plate (S. typhimurium TA97a; 0.2 μg/plate) was 89.0 colony forming units/plate, the Individual colony counts (S. typhimurium TA97a; 0.2 μg/plate) was 89 and the Colony forming units/plate (S. typhimurium TA97a; 1 μg/plate) was 122.0 colony forming units/plate. The Individual colony counts (S. typhimurium TA97a; 1 μg/plate) was 122, the Colony forming units/plate (S. typhimurium TA97a; 2 μg/plate) was 78.0 colony forming units/plate and the Individual colony counts (S. typhimurium TA97a; 2 μg/plate) was 78. For the same molecule, the Colony forming units/plate (S. typhimurium TA97a; 5 μg/plate) was 78.0 colony forming units/plate, the Individual colony counts (S. typhimurium TA97a; 5 μg/plate) was 78 and the Colony forming units/plate (S. typhimurium TA97a; 10 μg/plate) was 77.0 colony forming units/plate. The Individual colony counts (S. typhimurium TA97a; 10 μg/plate) was 77.0, the Colony forming units/plate (S. typhimurium TA97a; 20 μg/plate) was 0.0 colony forming units/plate and the Individual colony counts (S. typhimurium TA97a; 20 μg/plate) was 0. For the same molecule, the Colony forming units/plate (S. typhimurium TA97a; 50 μg/plate) was 0.0 colony forming units/plate, the Individual colony counts (S. typhimurium TA97a; 50 μg/plate) was 0 and the Colony forming units/plate (S. typhimurium TA97a; 125 μg/plate) was 0.0 colony forming units/plate. For the same molecule, the Individual colony counts (S. typhimurium TA97a; 125 μg/plate) was 0, the Colony forming units/plate (S. typhimurium TA97a; 250 μg/plate) was 0.0 colony forming units/plate and the Individual colony counts (S. typhimurium TA97a; 250 μg/plate) was 0. For the same molecule, the Colony forming units/plate (S. typhimurium TA97a; 500 μg/plate) was 0.0 colony forming units/plate, the Individual colony counts (S. typhimurium TA97a; 500 μg/plate) was 0 and the Colony forming units/plate (S. typhimurium TA97a; 1250 μg/plate) was 0.0 colony forming units/plate. The Individual colony counts (S. typhimurium TA97a; 1250 μg/plate) was 0, the “Plate postfix code (individual colony counts)” value (shortened to “Plate postfix code”) (S. typhimurium TA97a; 1250 μg/plate) was “A P” and the Colony forming units/plate (S. typhimurium TA97a; 2500 μg/plate) was 0.0 colony forming units/plate. The Individual colony counts (S. typhimurium TA97a; 2500 μg/plate) was 0, the Colony forming units/plate (S. typhimurium TA97a; 5000 μg/plate) was 0.0 colony forming units/plate and the Individual colony counts (S. typhimurium TA97a; 5000 μg/plate) was 0. For the same molecule, the Colony forming units/plate (S. typhimurium TA98; 1 μg/plate) was 8.0 colony forming units/plate, the Individual colony counts (S. typhimurium TA98; 1 μg/plate) was 8 and the Colony forming units/plate (S. typhimurium TA98; 2 μg/plate) was 18.0 colony forming units/plate. For the same molecule, the Individual colony counts (S. typhimurium TA98; 2 μg/plate) was 18, the Colony forming units/plate (S. typhimurium TA98; 5 μg/plate) was 16.0 colony forming units/plate and the Individual colony counts (S. typhimurium TA98; 5 μg/plate) was 16. For the same molecule, the Colony forming units/plate (S. typhimurium TA98; 10 μg/plate) was 16.0 colony forming units/plate, the Individual colony counts (S. typhimurium TA98; 10 μg/plate) was 16 and the Colony forming units/plate (S. typhimurium TA98; 20 μg/plate) was 0.0 colony forming units/plate. The Individual colony counts (S. typhimurium TA98; 20 μg/plate) was 0, the Colony forming units/plate (S. typhimurium TA98; 50 μg/plate) was 0.0 colony forming units/plate and the Individual colony counts (S. typhimurium TA98; 50 μg/plate) was 0. For the same molecule, the Colony forming units/plate (S. typhimurium TA98; 125 μg/plate) was 0.0 colony forming units/plate, the Individual colony counts (S. typhimurium TA98; 125 μg/plate) was 0 and the Colony forming units/plate (S. typhimurium TA98; 250 μg/plate) was 0.0 colony forming units/plate. The Individual colony counts (S. typhimurium TA98; 250 μg/plate) was 0, the Colony forming units/plate (S. typhimurium TA98; 500 μg/plate) was 0.0 colony forming units/plate and the Individual colony counts (S. typhimurium TA98; 500 μg/plate) was 0. For the same molecule, the “Plate postfix code” value (S. typhimurium TA98; 500 μg/plate) was “A P”, the Colony forming units/plate (S. typhimurium TA98; 1250 μg/plate) was 0.0 colony forming units/plate and the Individual colony counts (S. typhimurium TA98; 1250 μg/plate) was 0. For the same molecule, the “Plate postfix code” value (S. typhimurium TA98; 1250 μg/plate) was “A P”, the Colony forming units/plate (S. typhimurium TA98; 2500 μg/plate) was 0.0 colony forming units/plate and the Individual colony counts (S. typhimurium TA98; 2500 μg/plate) was 0. The “Plate postfix code” value (S. typhimurium TA98; 2500 μg/plate) was “A P”, the Colony forming units/plate (S. typhimurium TA98; 5000 μg/plate) was 0.0 colony forming units/plate and the Individual colony counts (S. typhimurium TA98; 5000 μg/plate) was 0. For the same molecule, the “Plate postfix code” value (S. typhimurium TA98; 5000 μg/plate) was “A P”, the “Reduction of MRSA USA 400 counts” value ([1]; 0.05% w/v, 2 mM, alcohol gel formulation, compared to the vehicle control, FIG. 9) was 4 fold and the “Reduction of MRSA USA 400 counts” value ([1]; 0.1% BM3103, Transcutol formulation, FIG. 10) was over 5 fold. For the same molecule, the “Bacterial count of MRSA USA 400” value ([1]; 0.25% BM3103, alcohol gel formulation, FIG. 9) was “no bacterial count”, the “Bacterial count of MRSA USA 400” value ([1]; 0.5% BM3103, alcohol gel formulation, FIG. 9) was “no bacterial count” and the “Bacterial count of MRSA USA 400” value ([1]; remaining concentrations tested (1, 0.5, 0.25% w/v), Transcutol formulation, FIG. 10) was “no bacterial count”. For the same molecule, the “Effectiveness against wild type E. Coli” value (wild type E. Coli) was “effective”.
